Data published in paper PMC4890880 (ACS infectious diseases, 2016).
Where two headings read alike, the source gives them in different places.

Key:
[1] = system: Plasmodium berghei (Pb-Luc) exoerythrocytic-stage parasites; conditions: for normalised signal at concentration 10 (first series): concentration 10, first series of dose columns; for normalised signal at concentration 10 (second series): concentration 10, second series of dose columns; for IC50: read-out: PbLuc_IC50; for normalized signal at concentration 0.000508053 / normalized signal at concentration 0.00152416 / normalized signal at concentration 0.00457247 / normalized signal at concentration 0.0137174 / normalized signal at concentration 0.0411523 / normalized signal at concentration 0.123457 / normalized signal at concentration 0.37037 / normalized signal at concentration 1.11111 / normalized signal at concentration 3.33333 / normalized signal at concentration 10: fraction of control
HepG2-A16-CD81EGFP cells = conditions: for IC50: read-out: Tox_IC50, HepG2 cytotoxicity
[2] = sheet "2nd round", Broad compounds, dose response top concentration 10
[3] = second series of columns (replicate)
[4] = sheet 2nd round, maximal inhibition in dose response
[5] = first series of dose-response columns
[6] = sheet 2nd round, Broad compounds, dose response
[7] = second series of dose-response columns

C[C@@H]1CCCCO[C@H](CN(C)S(=O)(=O)c2ccc(F)cc2)[C@H](C)CN([C@@H](C)CO)C(=O)c2cc(N(C)C)ccc2O1 [BRD-K77718491-001-01-4]
normalised signal at concentration 0.000508053 (first series) [1]: 0.8436
normalised signal at concentration 0.000508053 (second series) [1]: 0.9419
normalised signal at concentration 0.00152416 (first series) [1]: 1.131
normalised signal at concentration 0.00152416 (second series) [1]: 0.8322
normalised signal at concentration 0.00457247 (first series) [1]: 0.8284
normalised signal at concentration 0.00457247 (second series) [1]: 0.9071
normalised signal at concentration 0.0137174 (first series) [1]: 1.006
normalised signal at concentration 0.0137174 (second series) [1]: 0.921
normalised signal at concentration 0.0411523 (first series) [1]: 0.8082
normalised signal at concentration 0.0411523 (second series) [1]: 0.9497
normalised signal at concentration 0.123457 (first series) [1]: 0.9873
normalised signal at concentration 0.123457 (second series) [1]: 0.8645
normalised signal at concentration 0.37037 (first series) [1]: 0.8615
normalised signal at concentration 0.37037 (second series) [1]: 0.9228
normalised signal at concentration 1.11111 (first series) [1]: 0.9968
normalised signal at concentration 1.11111 (second series) [1]: 0.8769
normalised signal at concentration 3.33333 (first series) [1]: 0.7967
normalised signal at concentration 3.33333 (second series) [1]: 1.06
normalised signal at concentration 10 (first series) [1]: 0.9825
normalised signal at concentration 10 (second series) [1]: 0.8275
IC50 [1, 2]: > 10 µM
PbLuc_max_inhibition (%) ([1]; sheet "2nd round"): 20%
IC50 (HepG2-A16-CD81EGFP cells; sheet "2nd round"): > 10 µM
Tox_max_inhibition (%) (HepG2-A16-CD81EGFP cells; sheet "2nd round"): 7%

CO[C@H]1CN(C)C(=O)c2cc(NC(=O)c3cccc(F)c3)ccc2OC[C@H](C)N(C)C[C@H]1C [BRD-K79512815-001-01-8]
normalized signal at concentration 0.000508053 ([1]; first series of columns): 0.92
normalized signal at concentration 0.00152416 ([1]; first series of columns): 0.8929
normalized signal at concentration 0.00457247 ([1]; first series of columns): 0.8757
normalized signal at concentration 0.0137174 ([1]; first series of columns): 1.1664
normalized signal at concentration 0.0411523 ([1]; first series of columns): 0.9194
normalized signal at concentration 0.123457 ([1]; first series of columns): 0.814
normalized signal at concentration 0.37037 ([1]; first series of columns): 0.9475
normalized signal at concentration 1.11111 ([1]; first series of columns): 0.9407
normalized signal at concentration 3.33333 ([1]; first series of columns): 0.9302
normalized signal at concentration 10 ([1]; first series of columns): 0.6026
IC50 ([1]; sheet 2nd round, Pb-Luc exoerythrocytic stage, 10-point dose response, top concentration 10): > 10 µM
normalized signal at concentration 0.000508053 [1, 3]: 0.9673
normalized signal at concentration 0.00152416 [1, 3]: 1.022
normalized signal at concentration 0.00457247 [1, 3]: 0.9573
normalized signal at concentration 0.0137174 [1, 3]: 0.903
normalized signal at concentration 0.0411523 [1, 3]: 0.8874
normalized signal at concentration 0.123457 [1, 3]: 0.788
normalized signal at concentration 0.37037 [1, 3]: 0.9616
normalized signal at concentration 1.11111 [1, 3]: 0.8772
normalized signal at concentration 3.33333 [1, 3]: 0.9295
normalized signal at concentration 10 [1, 3]: 0.8924
PbLuc_max_inhibition (%) [1, 4]: 40%
IC50 (HepG2-A16-CD81EGFP cells; sheet 2nd round): > 10 µM
Tox_max_inhibition (%) (HepG2-A16-CD81EGFP cells; [4]): 6%

COCC(=O)N1C[C@H](C)[C@@H](OC)CN(C)C(=O)c2ccc(NC(=O)Nc3cccc(F)c3)cc2OC[C@@H]1C [BRD-K86826411-001-01-1]
normalized signal at concentration 10 [1, 5]: 0.9867
normalized signal at concentration 0.000508053 ([1]; first series): 0.8374
normalized signal at concentration 0.00152416 ([1]; first series): 0.9593
normalized signal at concentration 0.00457247 ([1]; first series): 1.078
normalized signal at concentration 0.0137174 ([1]; first series): 1.13
normalized signal at concentration 0.0411523 ([1]; first series): 1.203
normalized signal at concentration 0.123457 ([1]; first series): 1.151
normalized signal at concentration 0.37037 ([1]; first series): 1.155
normalized signal at concentration 1.11111 ([1]; first series): 1.129
normalized signal at concentration 3.33333 ([1]; first series): 1.057
IC50 [1, 6]: > 10 µM
normalized signal at concentration 10 [1, 7]: 0.6676
normalized signal at concentration 0.000508053 ([1]; second series): 0.905
normalized signal at concentration 0.00152416 ([1]; second series): 1.0576
normalized signal at concentration 0.00457247 ([1]; second series): 1.018
normalized signal at concentration 0.0137174 ([1]; second series): 1.011
normalized signal at concentration 0.0411523 ([1]; second series): 0.9885
normalized signal at concentration 0.123457 ([1]; second series): 1.0489
normalized signal at concentration 0.37037 ([1]; second series): 0.9498
normalized signal at concentration 1.11111 ([1]; second series): 1.1227
normalized signal at concentration 3.33333 ([1]; second series): 1.155
PbLuc_max_inhibition (%) [1, 4]: 33%
IC50 (HepG2-A16-CD81EGFP cells; sheet 2nd round): > 10 µM
Tox_max_inhibition (%) (HepG2-A16-CD81EGFP cells; [4]): 13%

CCc1csc(N2[C@H](CO)[C@H](c3ccccc3)[C@@H]2CNC)n1 [BRD-K87640608-001-01-8]
normalized signal at concentration 10 [1, 5]: 0.6764
normalized signal at concentration 0.000508053 ([1]; first series): 0.8428
normalized signal at concentration 0.00152416 ([1]; first series): 0.8502
normalized signal at concentration 0.00457247 ([1]; first series): 0.7149
normalized signal at concentration 0.0137174 ([1]; first series): 0.7931
normalized signal at concentration 0.0411523 ([1]; first series): 0.9257
normalized signal at concentration 0.123457 ([1]; first series): 0.8195
normalized signal at concentration 0.37037 ([1]; first series): 0.9077
normalized signal at concentration 1.11111 ([1]; first series): 1.056
normalized signal at concentration 3.33333 ([1]; first series): 0.9058
IC50 [1, 6]: > 10 µM
normalized signal at concentration 10 [1, 7]: 0.7611
normalized signal at concentration 0.000508053 ([1]; second series): 1.024
normalized signal at concentration 0.00152416 ([1]; second series): 0.9242
normalized signal at concentration 0.00457247 ([1]; second series): 1.045
normalized signal at concentration 0.0137174 ([1]; second series): 0.9989
normalized signal at concentration 0.0411523 ([1]; second series): 0.8698
normalized signal at concentration 0.123457 ([1]; second series): 0.9345
normalized signal at concentration 0.37037 ([1]; second series): 1.174
normalized signal at concentration 1.11111 ([1]; second series): 1.035
normalized signal at concentration 3.33333 ([1]; second series): 0.7843
PbLuc_max_inhibition (%) [1, 4]: 32%
IC50 (HepG2-A16-CD81EGFP cells; sheet 2nd round): > 10 µM
Tox_max_inhibition (%) (HepG2-A16-CD81EGFP cells; [4]): 3.76%

COc1ccccc1S(=O)(=O)N(C)C[C@@H]1OCc2ccccc2-c2ccccc2C(=O)N([C@H](C)CO)C[C@@H]1C [BRD-K88384060-001-01-3]
normalised signal at concentration 0.000508053 (first series) [1]: 0.762
normalised signal at concentration 0.000508053 (second series) [1]: 0.8443
normalised signal at concentration 0.00152416 (first series) [1]: 0.9256
normalised signal at concentration 0.00152416 (second series) [1]: 0.8309
normalised signal at concentration 0.00457247 (first series) [1]: 0.8786
normalised signal at concentration 0.00457247 (second series) [1]: 0.8245
normalised signal at concentration 0.0137174 (first series) [1]: 0.8282
normalised signal at concentration 0.0137174 (second series) [1]: 0.879
normalised signal at concentration 0.0411523 (first series) [1]: 0.9277
normalised signal at concentration 0.0411523 (second series) [1]: 0.9618
normalised signal at concentration 0.123457 (first series) [1]: 0.8826
normalised signal at concentration 0.123457 (second series) [1]: 1.0267
normalised signal at concentration 0.37037 (first series) [1]: 0.7577
normalised signal at concentration 0.37037 (second series) [1]: 1.11
normalised signal at concentration 1.11111 (first series) [1]: 0.8863
normalised signal at concentration 1.11111 (second series) [1]: 0.7661
normalised signal at concentration 3.33333 (first series) [1]: 0.8204
normalised signal at concentration 3.33333 (second series) [1]: 0.8055
normalised signal at concentration 10 (first series) [1]: 0.8642
normalised signal at concentration 10 (second series) [1]: 0.7248
IC50 [1, 2]: > 10 µM
PbLuc_max_inhibition (%) ([1]; sheet "2nd round"): 28%
IC50 (HepG2-A16-CD81EGFP cells; sheet "2nd round"): > 10 µM
Tox_max_inhibition (%) (HepG2-A16-CD81EGFP cells; sheet "2nd round"): 2.77%

COc1ccc2c3c([nH]c2c1)[C@H](CO)N(Cc1ccccc1)CC31CN(C(=O)c2ccccn2)C1 [BRD-K93348054-001-01-9]
normalised signal at concentration 0.000508053 (first series) [1]: 1.077
normalised signal at concentration 0.000508053 (second series) [1]: 1.157
normalised signal at concentration 0.00152416 (first series) [1]: 0.9906
normalised signal at concentration 0.00152416 (second series) [1]: 0.8767
normalised signal at concentration 0.00457247 (first series) [1]: 0.8635
normalised signal at concentration 0.00457247 (second series) [1]: 1.079
normalised signal at concentration 0.0137174 (first series) [1]: 1.042
normalised signal at concentration 0.0137174 (second series) [1]: 0.9363
normalised signal at concentration 0.0411523 (first series) [1]: 0.9232
normalised signal at concentration 0.0411523 (second series) [1]: 0.9999
normalised signal at concentration 0.123457 (first series) [1]: 0.9966
normalised signal at concentration 0.123457 (second series) [1]: 1.053
normalised signal at concentration 0.37037 (first series) [1]: 0.8299
normalised signal at concentration 0.37037 (second series) [1]: 0.8736
normalised signal at concentration 1.11111 (first series) [1]: 0.8048
normalised signal at concentration 1.11111 (second series) [1]: 0.7
normalised signal at concentration 3.33333 (first series) [1]: 0.6468
normalised signal at concentration 3.33333 (second series) [1]: 0.6466
normalised signal at concentration 10 (first series) [1]: 0.6758
normalised signal at concentration 10 (second series) [1]: 0.621
IC50 [1, 2]: > 10 µM
PbLuc_max_inhibition (%) ([1]; sheet "2nd round"): 38%
IC50 (HepG2-A16-CD81EGFP cells; sheet "2nd round"): > 10 µM
Tox_max_inhibition (%) (HepG2-A16-CD81EGFP cells; sheet "2nd round"): 18%
